Several values for one entry are separate records, joined by “and”; a condition that tells them apart may be missing. Identical values can stand only once. Like-named read-outs stand apart in the source and are kept apart here.
Tests used:
[1] = type: physicochemical; conditions: pH 3.7
[2] = molecular target: mPrP(23–230) monomer (Mus musculus, UniProt P04925); conditions: pH 6
[3] = type: physicochemical

Chain of mPrP(23–230) monomer (P04925 23-230 limits assumed): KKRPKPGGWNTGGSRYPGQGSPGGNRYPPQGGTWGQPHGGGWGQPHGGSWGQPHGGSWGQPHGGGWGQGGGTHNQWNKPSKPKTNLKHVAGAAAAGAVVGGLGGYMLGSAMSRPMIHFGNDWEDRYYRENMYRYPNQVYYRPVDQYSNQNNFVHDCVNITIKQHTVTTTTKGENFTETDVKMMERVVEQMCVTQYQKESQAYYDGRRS

| Substance | average lag time for amyloidogenesis [1] | cross-seeding effect on mPrP(23–230) monomer [2] | monomer concentration remained in solution after fibrillization ([3]; pH 3.7) | average lag time of amyloid formation of mPrP(23–230) relative to unseeded reaction [2] | monomer concentration remained in solution after fibrillization ([3]; pH 7.4) |
| --- | --- | --- | --- | --- | --- |
| Ac-YMLGSAMSRPMIHFGND-NH2 [mPrP(127–143)] | hardly detectable | induced immediately | 32.6 µM and 35.6 µM and 27.2 µM | – | – |
| Ac-NLKHVAGAAAAGAVVGGLGG-NH2 [mPrP(107–126)] | – | no seeding effect | – | slightly prolonged | 12.4 µM and 11.1 µM and 6.6 µM |

Reference: paper PMC3700907 (PLoS ONE, 2013)
